In the NIST ThermoML archive (doi:10.1016/j.fluid.2010.03.010):
Numbers after ± are expanded uncertainties.

Conditions: Liquid, Vibrating tube method

`CCCCn1cc[n+](C)c1.N#CN=C=[N-]` [1-butyl-3-methylimidazolium dicyanamide] gave a mass density (293.15 K, 100 kPa) of 1064.4 ± 8.5 kg/m3, a mass density (293.15 K, 101.33 kPa) of 1063.73 ± 8.5 kg/m3 and a mass density (293.15 K, 250 kPa) of 1064.4 ± 8.5 kg/m3. The mass density (293.15 K, 500 kPa) was 1064.5 ± 8.5 kg/m3, the mass density (293.15 K, 1000 kPa) was 1064.7 ± 8.5 kg/m3 and the mass density (293.15 K, 2000 kPa) was 1065.1 ± 8.5 kg/m3. For the same compound, the mass density (293.15 K, 4990 kPa) was 1066.2 ± 8.5 kg/m3, the mass density (293.15 K, 10010 kPa) was 1068.2 ± 8.6 kg/m3 and the mass density (293.15 K, 15000 kPa) was 1070 ± 8.6 kg/m3. For the same compound, the mass density (293.15 K, 20000 kPa) was 1071.9 ± 8.6 kg/m3, the mass density (293.15 K, 25000 kPa) was 1073.6 ± 8.6 kg/m3 and the mass density (293.15 K, 30000 kPa) was 1075.4 ± 8.6 kg/m3. The mass density (293.15 K, 35000 kPa) was 1077.1 ± 8.6 kg/m3, the mass density (293.15 K, 40000 kPa) was 1078.9 ± 8.6 kg/m3 and the mass density (293.15 K, 45000 kPa) was 1080.5 ± 8.7 kg/m3. For the same compound, the mass density (293.15 K, 50000 kPa) was 1082.2 ± 8.7 kg/m3, the mass density (293.15 K, 55000 kPa) was 1083.8 ± 8.7 kg/m3 and the mass density (293.15 K, 60000 kPa) was 1085.4 ± 8.7 kg/m3. For the same compound, the mass density (294.15 K, 101.33 kPa) was 1063.09 ± 8.5 kg/m3, the mass density (295.15 K, 101.33 kPa) was 1062.45 ± 8.5 kg/m3 and the mass density (296.15 K, 101.33 kPa) was 1061.81 ± 8.5 kg/m3. For the same compound, the mass density (297.15 K, 101.33 kPa) was 1061.17 ± 8.5 kg/m3, the mass density (298.15 K, 101.33 kPa) was 1060.53 ± 8.5 kg/m3 and the mass density (299.15 K, 101.33 kPa) was 1059.89 ± 8.5 kg/m3. It also gave a mass density (300.15 K, 101.33 kPa) of 1059.26 ± 8.5 kg/m3, a mass density (301.15 K, 101.33 kPa) of 1058.62 ± 8.5 kg/m3 and a mass density (302.15 K, 101.33 kPa) of 1057.99 ± 8.5 kg/m3. It also gave a mass density (303.15 K, 100 kPa) of 1057.9 ± 8.5 kg/m3, a mass density (303.15 K, 101.33 kPa) of 1057.35 ± 8.5 kg/m3 and a mass density (303.15 K, 250 kPa) of 1057.9 ± 8.5 kg/m3. It also gave a mass density (303.15 K, 500 kPa) of 1058 ± 8.5 kg/m3, a mass density (303.15 K, 1000 kPa) of 1058.2 ± 8.5 kg/m3 and a mass density (303.15 K, 2000 kPa) of 1058.6 ± 8.5 kg/m3. For the same compound, the mass density (303.15 K, 4990 kPa) was 1059.8 ± 8.5 kg/m3, the mass density (303.15 K, 10000 kPa) was 1061.8 ± 8.5 kg/m3 and the mass density (303.15 K, 14990 kPa) was 1063.6 ± 8.5 kg/m3. For the same compound, the mass density (303.15 K, 20010 kPa) was 1065.5 ± 8.5 kg/m3, the mass density (303.15 K, 25000 kPa) was 1067.4 ± 8.5 kg/m3 and the mass density (303.15 K, 30000 kPa) was 1069.2 ± 8.6 kg/m3. For the same compound, the mass density (303.15 K, 34990 kPa) was 1070.9 ± 8.6 kg/m3, the mass density (303.15 K, 40000 kPa) was 1072.7 ± 8.6 kg/m3 and the mass density (303.15 K, 45000 kPa) was 1074.4 ± 8.6 kg/m3. The mass density (303.15 K, 50000 kPa) was 1076.1 ± 8.6 kg/m3, the mass density (303.15 K, 55000 kPa) was 1077.8 ± 8.6 kg/m3 and the mass density (303.15 K, 60000 kPa) was 1079.4 ± 8.6 kg/m3. The mass density (304.15 K, 101.33 kPa) was 1056.72 ± 8.5 kg/m3, the mass density (305.15 K, 101.33 kPa) was 1056.09 ± 8.4 kg/m3 and the mass density (306.15 K, 101.33 kPa) was 1055.45 ± 8.4 kg/m3. For the same compound, the mass density (307.15 K, 101.33 kPa) was 1054.82 ± 8.4 kg/m3, the mass density (308.15 K, 101.33 kPa) was 1054.19 ± 8.4 kg/m3 and the mass density (309.15 K, 101.33 kPa) was 1053.56 ± 8.4 kg/m3. The mass density (310.15 K, 101.33 kPa) was 1052.93 ± 8.4 kg/m3, the mass density (311.15 K, 101.33 kPa) was 1052.31 ± 8.4 kg/m3 and the mass density (312.15 K, 101.33 kPa) was 1051.68 ± 8.4 kg/m3. For the same compound, the mass density (313.15 K, 100 kPa) was 1051.5 ± 8.4 kg/m3, the mass density (313.15 K, 101.33 kPa) was 1051.05 ± 8.4 kg/m3 and the mass density (313.15 K, 250 kPa) was 1051.5 ± 8.4 kg/m3. For the same compound, the mass density (313.15 K, 500 kPa) was 1051.6 ± 8.4 kg/m3, the mass density (313.15 K, 1000 kPa) was 1051.8 ± 8.4 kg/m3 and the mass density (313.15 K, 2000 kPa) was 1052.3 ± 8.4 kg/m3. For the same compound, the mass density (313.15 K, 4990 kPa) was 1053.4 ± 8.4 kg/m3, the mass density (313.15 K, 10000 kPa) was 1055.5 ± 8.4 kg/m3 and the mass density (313.15 K, 14990 kPa) was 1057.4 ± 8.5 kg/m3. It also gave a mass density (313.15 K, 20010 kPa) of 1059.4 ± 8.5 kg/m3, a mass density (313.15 K, 25000 kPa) of 1061.2 ± 8.5 kg/m3 and a mass density (313.15 K, 30000 kPa) of 1063.1 ± 8.5 kg/m3. It also gave a mass density (313.15 K, 35000 kPa) of 1064.9 ± 8.5 kg/m3, a mass density (313.15 K, 40010 kPa) of 1066.7 ± 8.5 kg/m3 and a mass density (313.15 K, 45000 kPa) of 1068.4 ± 8.6 kg/m3. It also gave a mass density (313.15 K, 50000 kPa) of 1070.2 ± 8.6 kg/m3, a mass density (313.15 K, 55010 kPa) of 1071.9 ± 8.6 kg/m3 and a mass density (313.15 K, 60000 kPa) of 1073.6 ± 8.6 kg/m3. For the same compound, the mass density (314.15 K, 101.33 kPa) was 1050.43 ± 8.4 kg/m3, the mass density (315.15 K, 101.33 kPa) was 1049.8 ± 8.4 kg/m3 and the mass density (316.15 K, 101.33 kPa) was 1049.18 ± 8.4 kg/m3. It also gave a mass density (317.15 K, 101.33 kPa) of 1048.56 ± 8.4 kg/m3, a mass density (318.15 K, 101.33 kPa) of 1047.94 ± 8.4 kg/m3 and a mass density (319.15 K, 101.33 kPa) of 1047.32 ± 8.4 kg/m3. It also gave a mass density (320.15 K, 101.33 kPa) of 1046.7 ± 8.4 kg/m3, a mass density (321.15 K, 101.33 kPa) of 1046.08 ± 8.4 kg/m3 and a mass density (322.15 K, 101.33 kPa) of 1045.46 ± 8.4 kg/m3. For the same compound, the mass density (323.15 K, 100 kPa) was 1045.2 ± 8.4 kg/m3, the mass density (323.15 K, 101.33 kPa) was 1044.84 ± 8.4 kg/m3 and the mass density (323.15 K, 250 kPa) was 1045.3 ± 8.4 kg/m3. It also gave a mass density (323.15 K, 500 kPa) of 1045.4 ± 8.4 kg/m3, a mass density (323.15 K, 1000 kPa) of 1045.6 ± 8.4 kg/m3 and a mass density (323.15 K, 2010 kPa) of 1046 ± 8.4 kg/m3. It also gave a mass density (323.15 K, 4990 kPa) of 1047.3 ± 8.4 kg/m3, a mass density (323.15 K, 10010 kPa) of 1049.3 ± 8.4 kg/m3 and a mass density (323.15 K, 14990 kPa) of 1051.3 ± 8.4 kg/m3. The mass density (323.15 K, 20010 kPa) was 1053.3 ± 8.4 kg/m3, the mass density (323.15 K, 25000 kPa) was 1055.2 ± 8.4 kg/m3 and the mass density (323.15 K, 30010 kPa) was 1057.1 ± 8.5 kg/m3. For the same compound, the mass density (323.15 K, 34990 kPa) was 1058.9 ± 8.5 kg/m3, the mass density (323.15 K, 40000 kPa) was 1060.8 ± 8.5 kg/m3 and the mass density (323.15 K, 45000 kPa) was 1062.6 ± 8.5 kg/m3. For the same compound, the mass density (323.15 K, 50000 kPa) was 1064.4 ± 8.5 kg/m3, the mass density (323.15 K, 55000 kPa) was 1066.1 ± 8.5 kg/m3 and the mass density (323.15 K, 60000 kPa) was 1067.8 ± 8.6 kg/m3. It also gave a mass density (324.15 K, 101.33 kPa) of 1044.22 ± 8.4 kg/m3, a mass density (325.15 K, 101.33 kPa) of 1043.61 ± 8.3 kg/m3 and a mass density (326.15 K, 101.33 kPa) of 1042.99 ± 8.3 kg/m3. For the same compound, the mass density (327.15 K, 101.33 kPa) was 1042.37 ± 8.3 kg/m3, the mass density (328.15 K, 101.33 kPa) was 1041.76 ± 8.3 kg/m3 and the mass density (329.15 K, 101.33 kPa) was 1041.14 ± 8.3 kg/m3. For the same compound, the mass density (330.15 K, 101.33 kPa) was 1040.53 ± 8.3 kg/m3, the mass density (331.15 K, 101.33 kPa) was 1039.92 ± 8.3 kg/m3 and the mass density (332.15 K, 101.33 kPa) was 1039.3 ± 8.3 kg/m3. It also gave a mass density (333.15 K, 100 kPa) of 1039 ± 8.3 kg/m3, a mass density (333.15 K, 101.33 kPa) of 1038.69 ± 8.3 kg/m3 and a mass density (333.15 K, 250 kPa) of 1039.1 ± 8.3 kg/m3. It also gave a mass density (333.15 K, 500 kPa) of 1039.2 ± 8.3 kg/m3, a mass density (333.15 K, 1000 kPa) of 1039.4 ± 8.3 kg/m3 and a mass density (333.15 K, 2000 kPa) of 1039.9 ± 8.3 kg/m3. The mass density (333.15 K, 4990 kPa) was 1041.1 ± 8.3 kg/m3, the mass density (333.15 K, 10000 kPa) was 1043.2 ± 8.3 kg/m3 and the mass density (333.15 K, 15000 kPa) was 1045.2 ± 8.4 kg/m3. The mass density (333.15 K, 20000 kPa) was 1047.3 ± 8.4 kg/m3, the mass density (333.15 K, 25000 kPa) was 1049.2 ± 8.4 kg/m3 and the mass density (333.15 K, 30000 kPa) was 1051.3 ± 8.4 kg/m3.
